From patent US20260144783A1, “COMPOSITION FOR PREVENTING OR TREATING PERIPHERAL NEUROPATHY, CONTAINING ISOQUINOLINE DERIVATIVE AS ACTIVE INGREDIENT” (ALTMEDICAL CO., LTD., priority 2022, published 2026)

How the values were obtained:
[1] = system: Drosophila expressing shULK1 in C4da sensory neurons; assay: heat probe assay, ULK1 suppressed; type: in vivo; conditions: ULK1 expression suppressed; paclitaxel 20 μM and CD1-012 1 mM
Protocol: (§1) Subsequently, to understand the molecular mechanism underlying the therapeutic effect of CD1-012 on chemotherapy-induced peripheral neuropathy, the therapeutic effect of CD1-012 was examined after suppressing the expression of ULK1 or Rap9, which are essential genes in the recently identified alternative mitophagy pathway. To this end, a heat probe assay was performed using a 40° C. thermal probe after co-treating paclitaxel (20 μM) and CD1-012 (1 mM) in Drosophila expressing shULK1 or shRap9 in C4da sensory neurons, as well as in control Drosophila (wild-type). As a result, in the control group, the peripheral neuropathy symptoms (reduction in withdrawal latency) induced by paclitaxel were recovered by CD1-012 treatment.

HeLa-Parkin cell line = assay: mitophagy activity, flow cytometry (FACS); type: cell-based
Protocol: (§2) It was confirmed whether CD1-012 synthesized in Example 1 increases mitophagy activity in various cell lines. To this end, CD1-012 and Comparative Example 1 (CCCP) were treated in the SH-SY5Y cell line, a human neuroblastoma cell line expressing mt-Keima fluorescent protein, and in the HeLa-Parkin cell line, a HeLa cervical cancer cell line expressing Parkin (E3 ligase). Following this treatment, the mitophagy activity of each sample was analyzed using flow cytometry (FACS), and the results are shown in FIGS. 2A to 2B.

[2] = system: third-instar larvae of Drosophila (w1118); type: in vivo
Protocol: To this end, thermal sensitivity was measured in a Drosophila model of paclitaxel-induced peripheral neuropathy. […] As a result, after treatment with paclitaxel, hyperalgesia was observed, as indicated by a 35% reduction in withdrawal latency from 6.9 seconds to 4.5 seconds (FIG. 8A). Subsequently, to confirm the therapeutic effect of CD1-012 on peripheral neuropathy, Drosophila were treated with CD1-012 at a concentration of 1 mM along with paclitaxel (20 μM).
as §1

[3] = system: mitochondrial reactive oxygen species (ROS); assay: MitoSOX assay; type: cell-based; conditions: CD1-012 10 μM or 15 μM, CCCP 10 μM, 24 hours
Protocol: It was confirmed whether the isoquinoline derivative according to the present invention induces mitochondrial dysfunction, similar to CCCP. To this end, the CD1-012 (10 μM or 15 μM) and CCCP (10 μM) were treated for 24 hours, and the mitochondrial membrane potential and mitochondrial reactive oxygen species (ROS) levels in each sample were analyzed. Mitochondrial membrane potential was analyzed using the TMRM (tetramethylrhodamine methyl ester) assay, and mitochondrial ROS levels were analyzed using the MitoSOX assay.

Drosophila larvae = assay: larval size after treatment; type: in vivo; conditions: in vivo
Protocol: In addition, to evaluate whether the compound according to the present invention affects the growth of Drosophila, the size of larvae was measured after treatment with paclitaxel and CD1-012.

SH-SY5Y cell line = assay: mitophagy activity, mt-Keima, flow cytometry (FACS); type: cell-based, human; conditions: SH-SY5Y expressing mt-Keima
Protocol: as §2

[4] = system: Drosophila expressing shRap9 in C4da sensory neurons; assay: heat probe assay, Rap9 suppressed; type: in vivo; conditions: Rap9 expression suppressed; paclitaxel 20 μM and CD1-012 1 mM
Protocol: as §1

[5] = system: chemotherapy-induced peripheral neuropathy mouse model; assay: nerve distribution in the footpad (IENFs), peripheral neuropathy mouse model; type: in vivo; conditions: mice treated with CD1-012 and paclitaxel, FIG. 12B

## Oc1cc2c(cc1O)-c1cc3ccc(O)c(O)c3c[n+]1CC2 [CD1-012, 2,3,9,10-tetrahydroxy-5,6-dihydroisoquinolino[3,2-a]isoquinolin-7-ium bromide]
[1]
  therapeutic effect on paclitaxel-induced peripheral neuropathy (withdrawal latency): completely abolished
HeLa-Parkin cell line
  mitophagy activity compared to the control group (Con): significantly increased
[2]; CD1-012 1 mM along with paclitaxel 20 μM
  withdrawal latency as percent of the wild-type level: 91%
[2]; CD1-012 1 mM along with paclitaxel 20 μM, heat probe 40° C., paclitaxel alone 4.5 seconds
  withdrawal latency: 6.3 s
[2]; control Drosophila (wild-type), paclitaxel 20 μM and CD1-012 1 mM, 40° C. probe
  peripheral neuropathy symptoms (reduction in withdrawal latency) induced by paclitaxel: recovered
[3]
  mitochondrial ROS levels: no increase
Drosophila larvae
  reduction in larval size compared to the untreated control group: ~10%
SH-SY5Y cell line
  mitophagy activity compared to the control group (Con): significantly increased
[4]
  therapeutic effect on paclitaxel-induced peripheral neuropathy (withdrawal latency): completely abolished
[5]
  number of peripheral nerves (intraepidermal nerve fibers: IENFs) in the footpad: recovery to normal levels
